Converted amounts (≈) assume the structure as drawn.
Columns and labels:
Test in all cases: in vitro antibacterial activity (MIC), agar dilution
Type in all cases: cell-based
[1] = test system: Streptococcus bovis A-5169; conditions: organism code JJ; BHI agar, 35-37° C., 20 to 24 hours; unit assumed
Summary of the method: (§1)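 Agar dilution in BHI agar, twelve successive compound dilutions. Inoculum 1:100, or 1:10 for slow-growing strains (e.g. Streptococcus), replicator-spotted. Read by eye; MIC = lowest concentration with no growth, slight haze or sparsely isolated colonies relative to growth control.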

[2] = test system: Mycobacterium smegmatis ATCC 114; conditions: organism code UU; BHI agar, 35-37° C., 20 to 24 hours; unit assumed
Summary of the method: as §1

[3] = test system: Staphylococcus epidermidis 3519; conditions: organism code HH; BHI agar, 35-37° C., 20 to 24 hours; unit assumed
Summary of the method: as §1

[4] = test system: Streptococcus Pneumonia 5979; conditions: organism code ZZ; BHI agar, 35-37° C., 20 to 24 hours; unit assumed
Summary of the method: as §1

[5] = test system: Micrococcus luteus ATCC 4698; conditions: organism code PP; BHI agar, 35-37° C., 20 to 24 hours; unit assumed
Summary of the method: (§2)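 Plates of BHI agar were prepared with twelve aqueous dilutions of compound, then inoculated at 1:100 dilution, or 1:10 for slow growers like Streptococcus. After incubation they were inspected, and the lowest concentration yielding no growth, slight haze or sparse colonies was recorded as MIC.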

[6] = test system: Streptococcus pyogenes PIU 2548; conditions: organism code NN; BHI agar, 35-37° C., 20 to 24 hours; unit assumed
Summary of the method: as §1

[7] = test system: Escherichia coli SS; conditions: organism code RR; BHI agar, 35-37° C., 20 to 24 hours; unit assumed
Summary of the method: as §1

[8] = test system: Staphylococcus aureus 1775; conditions: organism code GG; BHI agar, 35-37° C., 20 to 24 hours; unit assumed
Summary of the method: as §1

[9] = test system: Staphylococcus aureus A-5278; conditions: organism code CC; BHI agar, 35-37° C., 20 to 24 hours; unit assumed
Summary of the method: as §1

[10] = test system: Streptococcus Pneumonia 5649; conditions: organism code ZZA; BHI agar, 35-37° C., 20 to 24 hours; unit assumed
Summary of the method: as §1

[11] = test system: Streptococcus Pneumonia ATCC6303; conditions: organism code XX; BHI agar, 35-37° C., 20 to 24 hours; unit assumed
Summary of the method: as §1

[12] = test system: Candida albicans CCH 442; conditions: organism code TT; BHI agar, 35-37° C., 20 to 24 hours; unit assumed
Summary of the method: as §1

[13] = test system: Staphylococcus aureus CMX 642A; conditions: organism code DD; BHI agar, 35-37° C., 20 to 24 hours; unit assumed
Summary of the method: as §1

[14] = test system: Streptococcus pyogenes 930; conditions: organism code MM; BHI agar, 35-37° C., 20 to 24 hours; unit assumed
Summary of the method: as §1

[15] = test system: Streptococcus agalactiae CMX 508; conditions: organism code KK; BHI agar, 35-37° C., 20 to 24 hours; unit assumed
Summary of the method: as §1

[16] = test system: Nocardia Asteroides ATCC9970; conditions: organism code VV; BHI agar, 35-37° C., 20 to 24 hours; unit assumed
Summary of the method: as §1

[17] = test system: Staphylococcus aureus A5177; conditions: organism code BB; BHI agar, 35-37° C., 20 to 24 hours; unit assumed
Summary of the method: as §1

[18] = test system: Micrococcus luteus ATCC 9341; conditions: organism code OO; BHI agar, 35-37° C., 20 to 24 hours; unit assumed
Summary of the method: as §2

[19] = test system: Escherichia coli DC-2; conditions: organism code SS; BHI agar, 35-37° C., 20 to 24 hours; unit assumed
Summary of the method: as §1

[20] = test system: Streptococcus pyogenes EES61; conditions: organism code LL; BHI agar, 35-37° C., 20 to 24 hours; unit assumed
Summary of the method: as §1

[21] = test system: Staphylococcus aureus ATCC 6538P; conditions: organism code AA; BHI agar, 35-37° C., 20 to 24 hours; unit assumed
Summary of the method: as §1

[22] = test system: Escherichia coli JUHL; conditions: organism code QQ; BHI agar, 35-37° C., 20 to 24 hours; unit assumed
Summary of the method: as §1

[23] = test system: Haemophilis Influenzae DILL AMP R; conditions: organism code WW; BHI agar, 35-37° C., 20 to 24 hours; unit assumed
Summary of the method: as §1

[24] = test system: Staphylococcus aureus NCTC10649M; conditions: organism code EE; BHI agar, 35-37° C., 20 to 24 hours; unit assumed
Summary of the method: as §1

[25] = test system: Enterococcus faecium ATCC 8043; conditions: organism code II; BHI agar, 35-37° C., 20 to 24 hours; unit assumed
Summary of the method: as §1

[26] = test system: Streptococcus Pneumonia GYR 1171; conditions: organism code YY; BHI agar, 35-37° C., 20 to 24 hours; unit assumed
Summary of the method: as §1

[27] = test system: Staphylococcus aureus CMX 553; conditions: organism code FF; BHI agar, 35-37° C., 20 to 24 hours; unit assumed
Summary of the method: as §1

Row | Structure (SMILES) | MIC [1] [µg/mL] | MIC [2] [µg/mL] | MIC [3] [µg/mL] | MIC [4] [µg/mL] | MIC [5] [µg/mL] | MIC [6] [µg/mL] | MIC [7] [µg/mL] | MIC [8] [µg/mL] | MIC [9] [µg/mL] | MIC [10] [µg/mL] | MIC [11] [µg/mL] | MIC [12] [µg/mL] | MIC [13] [µg/mL] | MIC [14] [µg/mL] | MIC [15] [µg/mL] | MIC [16] [µg/mL] | MIC [17] [µg/mL] | MIC [18] [µg/mL] | MIC [19] [µg/mL] | MIC [20] [µg/mL] | also measured
1 | CC[C@H]1OC(=O)[C@H](C)C(=O)[C@H](C)[C@@H](O[C@@H]2O[C@H](C)C[C@H](N(C)C)[C@H]2O)[C@](C)(OC/C=C/c2ccc(-c3ncccn3)s2)C[C@@H](C)C(=O)[C@H](C)[C@H]2NC(=O)O[C@@]21C [Example 61] | 0.01 (≈ 0.0125 µM) | 0.39 (≈ 0.488 µM) | 0.1 (≈ 0.125 µM) | 8 (≈ 10 µM) | 0.05 (≈ 0.0626 µM) | 0.1 (≈ 0.125 µM) | 0.39 (≈ 0.488 µM) | > 100 | > 100 | 0.25 (≈ 0.313 µM) | 0.015 (≈ 0.0188 µM) | > 100 | 0.1 (≈ 0.125 µM) | 50 (≈ 62.6 µM) | 0.01 (≈ 0.0125 µM) | 0.05 (≈ 0.0626 µM) | 0.1 (≈ 0.125 µM) | 0.01 (≈ 0.0125 µM) | 50 (≈ 62.6 µM) | 0.01 (≈ 0.0125 µM) | MIC [21]: 0.05 µg/mL (≈ 0.0626 µM); MIC [22]: 25 µg/mL (≈ 31.3 µM); MIC [23]: 8 µg/mL (≈ 10 µM); MIC [24]: 0.1 µg/mL (≈ 0.125 µM); MIC [25]: 0.05 µg/mL (≈ 0.0626 µM); MIC [26]: 0.015 µg/mL (≈ 0.0188 µM); MIC [27]: 0.1 µg/mL (≈ 0.125 µM)
2 | CC[C@H]1OC(=O)[C@H](C)C(=O)[C@H](C)[C@@H](O[C@@H]2O[C@H](C)C[C@H](N(C)C)[C@H]2O)[C@](C)(OC/C=C/c2ccc(-c3cnccn3)s2)C[C@@H](C)C(=O)[C@H](C)[C@H]2NC(=O)O[C@@]21C [Example 62] | ≤ 0.005 | 0.78 (≈ 0.976 µM) | 0.05 (≈ 0.0626 µM) | 2 (≈ 2.5 µM) | 0.05 (≈ 0.0626 µM) | 0.1 (≈ 0.125 µM) | 0.2 (≈ 0.25 µM) | > 100 | > 100 | 0.03 (≈ 0.0375 µM) | ≤ 0.004 | > 100 | 0.05 (≈ 0.0626 µM) | 3.1 (≈ 3.88 µM) | ≤ 0.005 | ≤ 0.005 | 0.05 (≈ 0.0626 µM) | ≤ 0.005 | 25 (≈ 31.3 µM) | ≤ 0.005 | MIC [21]: 0.05 µg/mL (≈ 0.0626 µM); MIC [22]: 50 µg/mL (≈ 62.6 µM); MIC [23]: 2 µg/mL (≈ 2.5 µM); MIC [24]: 0.02 µg/mL (≈ 0.025 µM); MIC [25]: 0.02 µg/mL (≈ 0.025 µM); MIC [26]: ≤ 0.004 µg/mL; MIC [27]: 0.02 µg/mL (≈ 0.025 µM)
3 | CC[C@H]1OC(=O)[C@H](C)C(=O)[C@H](C)[C@@H](O[C@@H]2O[C@H](C)C[C@H](N(C)C)[C@H]2O)[C@](C)(OCC#Cc2ccc(-c3cncnc3)s2)C[C@@H](C)C(=O)[C@H](C)[C@H]2NC(=O)O[C@@]21C [Example 4] | ≤ 0.005 | 0.78 (≈ 0.979 µM) | 0.1 (≈ 0.125 µM) | 2 (≈ 2.51 µM) | 0.05 (≈ 0.0627 µM) | 0.1 (≈ 0.125 µM) | 0.39 (≈ 0.489 µM) | > 100 | > 100 | 0.5 (≈ 0.627 µM) | 0.03 (≈ 0.0376 µM) | > 100 | 0.1 (≈ 0.125 µM) | 12.5 (≈ 15.7 µM) | 0.01 (≈ 0.0125 µM) | 0.02 (≈ 0.0251 µM) | 0.1 (≈ 0.125 µM) | 0.01 (≈ 0.0125 µM) | 50 (≈ 62.7 µM) | 0.01 (≈ 0.0125 µM) | MIC [21]: 0.1 µg/mL (≈ 0.125 µM); MIC [22]: 50 µg/mL (≈ 62.7 µM); MIC [23]: 2 µg/mL (≈ 2.51 µM); MIC [24]: 0.1 µg/mL (≈ 0.125 µM); MIC [25]: 0.02 µg/mL (≈ 0.0251 µM); MIC [26]: 0.03 µg/mL (≈ 0.0376 µM); MIC [27]: 0.1 µg/mL (≈ 0.125 µM)
4 | CC[C@H]1OC(=O)[C@H](C)C(=O)[C@H](C)[C@@H](O[C@@H]2O[C@H](C)C[C@H](N(C)C)[C@H]2O)[C@](C)(OC/C=C/c2cnc(-c3cccnc3)s2)C[C@@H](C)C(=O)[C@H](C)[C@H]2NC(=O)O[C@@]21C [Example 55] | ≤ 0.005 | 0.39 (≈ 0.488 µM) | 0.1 (≈ 0.125 µM) | 2 (≈ 2.5 µM) | 0.2 (≈ 0.25 µM) | 0.2 (≈ 0.25 µM) | 0.39 (≈ 0.488 µM) | > 100 | > 100 | 0.25 (≈ 0.313 µM) | 0.03 (≈ 0.0375 µM) | > 100 | 0.05 (≈ 0.0626 µM) | 25 (≈ 31.3 µM) | 0.05 (≈ 0.0626 µM) | 0.02 (≈ 0.025 µM) | 0.05 (≈ 0.0626 µM) | 0.02 (≈ 0.025 µM) | 50 (≈ 62.6 µM) | 0.05 (≈ 0.0626 µM) | MIC [21]: 0.1 µg/mL (≈ 0.125 µM); MIC [22]: 50 µg/mL (≈ 62.6 µM); MIC [23]: 4 µg/mL (≈ 5.01 µM); MIC [24]: 0.1 µg/mL (≈ 0.125 µM); MIC [25]: 0.05 µg/mL (≈ 0.0626 µM); MIC [26]: 0.03 µg/mL (≈ 0.0375 µM); MIC [27]: 0.05 µg/mL (≈ 0.0626 µM)
